# Measured values: ChEMBL document CHEMBL5321294, “Evolution of Slow-Binding Inhibitors Targeting Histone Deacetylase Isoforms” (J Med Chem, 2023)
# Non-standard residues stand in square brackets, D forms with d. Residues, ends and D or L forms follow the SMILES beside them. *: point of attachment. Asu = N[C@@H](CCCCCC(=O)O)C(=O)O; dPip = O=C(O)[C@H]1CCCCN1; NHOH = ON*
# How the values were obtained:
# [1] = target: T1, Histone deacetylase 11 (Homo sapiens) (UniProt Q96DB2); assay: Binding affinity to human HDAC11 assessed as binding constant (k-2)
# T1 sequence (whole entry): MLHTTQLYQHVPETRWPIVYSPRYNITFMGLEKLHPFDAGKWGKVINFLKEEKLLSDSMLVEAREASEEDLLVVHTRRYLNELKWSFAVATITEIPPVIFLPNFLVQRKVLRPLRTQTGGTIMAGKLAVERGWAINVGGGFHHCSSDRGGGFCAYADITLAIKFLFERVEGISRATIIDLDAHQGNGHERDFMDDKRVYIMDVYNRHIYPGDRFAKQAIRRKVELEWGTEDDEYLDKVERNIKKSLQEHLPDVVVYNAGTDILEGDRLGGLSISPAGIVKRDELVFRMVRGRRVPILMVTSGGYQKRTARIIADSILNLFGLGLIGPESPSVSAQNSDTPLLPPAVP
# [2] = target: T1, Histone deacetylase 11 (Homo sapiens); assay: Binding affinity to human HDAC11 assessed as binding constant (k2)
# [3] = target: T2, Histone deacetylase 3 (Homo sapiens, UniProt O15379); assay: Binding affinity to HDAC3 (unknown origin) assessed as inhibition constant
# [4] = target: T2, Histone deacetylase 3; assay: Binding affinity to HDAC3 (unknown origin) assessed as residence time
# [5] = target: T2, Histone deacetylase 3; assay: Binding affinity to HDAC3 (unknown origin) assessed as inhibition constant(ki,1)
# [6] = target: T2, Histone deacetylase 3; assay: Binding affinity to HDAC3 (unknown origin) assessed as binding constant(k2)
# [7] = target: T2, Histone deacetylase 3; assay: Binding affinity to HDAC3 (unknown origin) assessed as binding constant(k-2)
# [8] = target: Histone deacetylase 2 (Homo sapiens, UniProt Q92769); assay: Binding affinity to HDAC2 (unknown origin) assessed as inhibition constant(ki,1)
# [9] = target: Histone deacetylase 1 (Homo sapiens, UniProt Q13547); assay: Binding affinity to HDAC1 (unknown origin) assessed as inhibition constant(ki,1)
# [10] = target: T3, Protein deacetylase HDAC6 (Homo sapiens) (UniProt Q9UBN7); assay: Binding affinity to recombinant human HDAC6 using Ac-Leu-Gly-Lys(Ac)-AMC as substrate measured after 60 mins assessed as binding constant (k-2) by fluorescence based assay
# T3 sequence (whole entry): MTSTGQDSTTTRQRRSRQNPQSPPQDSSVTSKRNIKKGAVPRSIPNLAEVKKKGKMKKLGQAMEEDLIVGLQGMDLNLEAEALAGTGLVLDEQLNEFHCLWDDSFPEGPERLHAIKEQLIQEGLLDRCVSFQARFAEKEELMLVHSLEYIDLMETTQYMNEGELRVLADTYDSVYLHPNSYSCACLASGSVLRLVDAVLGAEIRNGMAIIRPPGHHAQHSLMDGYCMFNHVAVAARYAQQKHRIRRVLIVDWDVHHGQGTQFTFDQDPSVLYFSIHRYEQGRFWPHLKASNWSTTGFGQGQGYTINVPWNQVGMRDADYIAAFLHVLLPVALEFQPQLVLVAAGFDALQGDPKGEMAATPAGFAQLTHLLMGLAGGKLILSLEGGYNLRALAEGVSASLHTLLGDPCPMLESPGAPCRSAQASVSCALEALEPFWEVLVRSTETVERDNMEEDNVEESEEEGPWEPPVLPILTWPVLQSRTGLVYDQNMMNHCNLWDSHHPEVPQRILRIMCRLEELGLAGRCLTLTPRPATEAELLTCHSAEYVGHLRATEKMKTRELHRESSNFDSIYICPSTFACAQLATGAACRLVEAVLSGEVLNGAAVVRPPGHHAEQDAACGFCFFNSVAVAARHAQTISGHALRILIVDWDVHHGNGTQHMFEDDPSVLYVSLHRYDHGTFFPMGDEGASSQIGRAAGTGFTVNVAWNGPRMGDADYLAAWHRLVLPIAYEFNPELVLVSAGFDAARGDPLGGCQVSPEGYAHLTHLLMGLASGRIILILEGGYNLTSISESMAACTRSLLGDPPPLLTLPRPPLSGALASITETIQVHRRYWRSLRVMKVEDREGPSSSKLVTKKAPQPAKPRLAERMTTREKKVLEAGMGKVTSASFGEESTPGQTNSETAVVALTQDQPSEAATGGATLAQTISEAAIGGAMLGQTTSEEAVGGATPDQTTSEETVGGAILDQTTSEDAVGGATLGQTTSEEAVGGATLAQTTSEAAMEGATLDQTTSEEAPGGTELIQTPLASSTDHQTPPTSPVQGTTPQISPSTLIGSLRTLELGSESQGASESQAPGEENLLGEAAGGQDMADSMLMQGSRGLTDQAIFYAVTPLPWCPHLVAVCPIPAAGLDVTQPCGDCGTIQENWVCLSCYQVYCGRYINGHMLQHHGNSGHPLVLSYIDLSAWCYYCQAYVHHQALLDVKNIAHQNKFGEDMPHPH
# [11] = target: T3, Protein deacetylase HDAC6 (Homo sapiens); assay: Binding affinity to recombinant human HDAC6 using Ac-Leu-Gly-Lys(Ac)-AMC as substrate measured after 60 mins assessed as binding constant (k2) by fluorescence based assay
# [12] = target: T4, Protein deacetylase HDAC6 (Homo sapiens, UniProt Q9UBN7); assay: Binding affinity to recombinant human HDAC6 using Ac-Leu-Gly-Lys(Ac)-AMC as substrate measured after 60 mins assessed as inhibition constant (ki,1) by fluorescence based assay
# T4 sequence (Q9UBN7 whole entry): T3 sequence (whole entry)
# [13] = target: T4, Protein deacetylase HDAC6; assay: Binding affinity to recombinant human HDAC6 using Ac-Leu-Gly-Lys(Ac)-AMC as substrate measured after 60 mins assessed as inhibition constant by fluorescence based assay
# [14] = target: T3, Protein deacetylase HDAC6 (Homo sapiens); assay: Binding affinity to recombinant human HDAC6 using Ac-Leu-Gly-Lys(Ac)-AMC as substrate assessed as residence time
# [15] = target: T5, Histone deacetylase 11 (Homo sapiens, UniProt Q96DB2); assay: Binding affinity to human HDAC11 assessed as inhibition constant (ki,1)
# T5 sequence (Q96DB2 whole entry): T1 sequence (whole entry)
# T2 sequence (O15379 whole entry): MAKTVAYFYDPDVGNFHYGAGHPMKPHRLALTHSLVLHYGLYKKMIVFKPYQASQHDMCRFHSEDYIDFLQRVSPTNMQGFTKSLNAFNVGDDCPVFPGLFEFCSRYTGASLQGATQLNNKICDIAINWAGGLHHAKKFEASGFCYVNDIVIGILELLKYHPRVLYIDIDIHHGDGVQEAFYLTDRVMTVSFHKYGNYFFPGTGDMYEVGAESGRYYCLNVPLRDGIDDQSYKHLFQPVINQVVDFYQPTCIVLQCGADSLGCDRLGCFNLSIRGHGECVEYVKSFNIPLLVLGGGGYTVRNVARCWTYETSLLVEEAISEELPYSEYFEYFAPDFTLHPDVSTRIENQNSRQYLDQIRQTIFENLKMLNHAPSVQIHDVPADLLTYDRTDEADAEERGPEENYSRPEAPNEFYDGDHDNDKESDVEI
# Sequence of Histone deacetylase 1 (Q13547 whole entry): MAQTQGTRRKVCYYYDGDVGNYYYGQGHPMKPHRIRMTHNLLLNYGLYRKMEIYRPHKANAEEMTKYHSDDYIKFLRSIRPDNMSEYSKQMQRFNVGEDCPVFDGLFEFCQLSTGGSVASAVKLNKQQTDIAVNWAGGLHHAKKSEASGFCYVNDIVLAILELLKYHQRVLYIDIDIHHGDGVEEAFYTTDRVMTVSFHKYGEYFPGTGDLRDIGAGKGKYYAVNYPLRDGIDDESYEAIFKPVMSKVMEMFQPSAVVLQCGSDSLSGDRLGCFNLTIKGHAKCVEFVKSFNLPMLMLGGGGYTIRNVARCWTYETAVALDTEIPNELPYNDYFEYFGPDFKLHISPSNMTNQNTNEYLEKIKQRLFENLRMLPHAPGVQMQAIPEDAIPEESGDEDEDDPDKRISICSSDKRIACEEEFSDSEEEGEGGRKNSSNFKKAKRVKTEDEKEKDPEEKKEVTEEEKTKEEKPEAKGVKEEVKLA
# Sequence of Histone deacetylase 2 (Q92769 whole entry): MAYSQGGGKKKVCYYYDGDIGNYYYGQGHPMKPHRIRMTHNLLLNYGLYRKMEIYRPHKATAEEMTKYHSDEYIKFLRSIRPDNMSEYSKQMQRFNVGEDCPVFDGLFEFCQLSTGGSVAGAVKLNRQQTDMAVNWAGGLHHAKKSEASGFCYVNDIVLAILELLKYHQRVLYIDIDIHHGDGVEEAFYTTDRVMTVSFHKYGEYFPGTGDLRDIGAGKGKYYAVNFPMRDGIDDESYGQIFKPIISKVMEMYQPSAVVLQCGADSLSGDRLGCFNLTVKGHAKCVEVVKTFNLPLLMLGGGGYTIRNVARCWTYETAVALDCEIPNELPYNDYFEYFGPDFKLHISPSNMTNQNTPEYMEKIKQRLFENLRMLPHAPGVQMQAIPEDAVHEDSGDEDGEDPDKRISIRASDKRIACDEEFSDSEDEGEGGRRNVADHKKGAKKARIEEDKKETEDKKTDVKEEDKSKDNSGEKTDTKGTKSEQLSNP
structure (smiles),measurement,setting,value
CC[C@H](C)[C@@H]1NC(=O)[C@H](Cc2c[nH]c3ccccc23)NC(=O)[C@H](CCCCCC(=O)NO)NC(=O)[C@H]2CCCCN2C1=O (cyclo([Asu](NHOH)WI[dPip])),K,[1],0 min⁻¹
same,K,[2],0.73 min⁻¹
same,Ki,[3],0.04 nM
same,TIME,[4],1.85 h
same,Ki,[5],1.6 nM
same,K,[6],0.158 min⁻¹
same,K,[7],0.009 min⁻¹
same,Ki,[8],0.35 nM
same,Ki,[9],0.32 nM
same,K,[10],0.01 min⁻¹
same,K,[11],0.17 min⁻¹
same,Ki,[12],23 nM
same,Ki,[13],~3.6 nM
same,TIME,[14],1.67 h
same,Ki,[15],18 nM
